Results from patent US9006467B2, “1,2,3-triazole containing artemisinin compounds and process for preparation thereof” (Councel of Scientific & Industrial Research, priority 2011, dated 2015).

Legend:
leukaemia THP-1 = assay: In vitro cytotoxicity against human cancer cell lines (sulforhodamine B), leukaemia THP-1; format: cell-based; conditions: 48 hours, read-out: % GROWTH INHIBITION leukaemia THP-1; for inhibition at 10 µM: 1 × 10^−5 M; for inhibition at 50 µM: 5 × 10^−5 M
Method: (§1) The human cancer cell lines procured from National Cancer Institute, Frederick, U.S.A., were used in present study. Cells were grown in tissue culture flasks in complete growth medium (RPMI-1640 medium with 2 mM glutamine, 100 μg/mL streptomycin, pH 7.4, sterilized by filtration and supplemented with 10% fetal bovine serum and 100 units/ml penicillin before use) at 37 QC in an atmosphere of 5% CO2 and 90% relative humidity in a carbon dioxide incubator. The cells at subconfluent stage were harvested from the flask by treatment with trypsin (0.05% in PBS containing 0.02% EDTA) for determination of cytotoxicity. The cell suspension of the required cell density was prepared in complete growth medium with gentamycin (50 μg/mL) for determination of cytotoxicity.
(§2) Stock solutions of 2×10^−2M of test materials were prepared in DMSO. The stock solutions were serially diluted with complete growth medium containing 50 μg/ml of gentamycin to obtain working test solution of 2×10^−5M to obtain final concentration of 1×10^−5M respectively.
(§3) In vitro cytotoxicity against human cancer cell lines was determined (Monks et al., J. Natl. Cancer Inst. 1991, 83, 757-766). The 100 μL of cell suspension was added to each well of the 96-well tissue culture plate. The cells were incubated for 24 hours (at 37° C. in an atmosphere of 5% CO2 and 90% relative humidity in a carbon dioxide incubator). Test materials in complete growth medium (100 μL) were added after 24 hours incubation to the wells containing cells. The plates were further incubated for 48 hours in a carbon dioxide incubator after addition of test material. The cell growth was stopped by gently layering trichloroacetic acid (50 μL, 50% w/v) on top of the medium in all the wells. The plates were incubated at 4° C. for one hour to fix the cells attached to the bottom of the wells. The liquid of all the wells was then gently decanted and discarded. The plates were washed five times with distilled water and air-dried. Cell growth was measured by staining with sulforhodamine B dye (Skehan et al., J. Natl. Cancer Inst. 1990, 82, 1107-1112). The adsorbed dye was dissolved in Tris-Buffer (100 μL, 0.01M, pH 10.4) and plates were gently stirred for 10 minutes on a mechanical stirrer. The optical density (OD) was recorded on ELISA reader at 540 nm.
(§4) The cell growth was calculated by subtracting mean OD value of respective blank from the mean OD value of experimental set. Percent growth in presence of test material was calculated considering the growth in absence of any test material as 100% and in turn percent growth inhibition in presence of test material was calculated. Suitable blank, controls and positive controls were included in the study.

[1] = system: colon HCT-15 human cancer cell line; assay: In vitro cytotoxicity against human cancer cell lines (sulforhodamine B), colon HCT-15; format: cell-based; conditions: 48 hours, read-out: % GROWTH INHIBITION colon HCT-15; for inhibition at 50 µM: 5 × 10^−5 M
[2] = system: colon HCT-15 human cancer cell line; assay: as above; format: cell-based; conditions: 1 × 10^−5 M, 48 hours, read-out: % GROWTH INHIBITION colon HCT-15
Method: as §1, §2, §3, §4

Lung cancer cell A-549 = assay: In vitro cytotoxicity against human cancer cell lines (sulforhodamine B), Lung A-549; format: cell-based; conditions: 48 hours, read-out: % GROWTH INHIBITION Lung A-549; for inhibition at 10 µM: A549, 1 × 10^−5 M; for inhibition at 50 µM: A549, 5 × 10^−5 M
Method: as §1, §2, §3, §4

[3] = system: Ehrlich ascites tumor (EAT) cells; conditions: MTT assay, read-out: IC50 (drug concentration causing 50% growth inhibition of the tumor cells); cited from earlier work
P388 leukemia = conditions: NCI Report on NSC 369397; cited from earlier work
[4] = system: cell line panels consisting of 60 lines; conditions: nine disease-related subpanels; cited from earlier work
CMV [5] = conditions: cited from earlier work
[6] = system: human liver cell line of HEP-2 type; assay: In vitro cytotoxicity against human cancer cell lines (sulforhodamine B), Liver HEP-2; format: cell-based; conditions: 1 × 10^−5 M, 48 hours
Method: as §1, with “The cell suspension of the required cell density was prepared in complete growth medium with gentamycin (50 μg/mL) for determination of cytotoxicity.” left out
In vitro cytotoxicity against human cancer cell lines was determined (Monks et al., J. Natl. Cancer Inst. 1991, 83, 757-766). […] Cell growth was measured by staining with sulforhodamine B dye (Skehan et al., J. Natl. Cancer Inst. 1990, 82, 1107-1112). […] The optical density (OD) was recorded on ELISA reader at 540 nm.
as §4, with “Suitable blank, controls and positive controls were included in the study.” left out

CMV [7] = conditions: cited from earlier work; remark: listed apart in the source

Compound	inhibition at 10 µM [2]	inhibition at 10 µM (Lung cancer cell A-549)	inhibition at 50 µM (Lung cancer cell A-549)	inhibition at 50 µM [1]	inhibition at 10 µM (leukaemia THP-1)	inhibition at 50 µM (leukaemia THP-1)	also measured
O=c1[nH]cc(F)c(=O)[nH]1 [5-Fluorouracil, reference compound]							inhibition at 20 µM (leukaemia THP-1; 2 × 10^−5 M): 73%; inhibition at 20 µM ([1]; 2 × 10^−5 M): 65%
C[C@@H]1CC[C@H]2[C@@H](C)C(=O)O[C@@H]3O[C@@]4(C)CC[C@@H]1[C@]32OO4 [Artemisinin, artemisinin]	29%	19%	29%	31%			IC50 [3]: 29.8 µM; activity against P388 leukemia (P388 leukemia): inactive; anticancer activity in 60 cell line panel [4]: very little anticancer activity; anti-CMV activity, in words (CMV [5]; in-vitro): lower anti-CMV activity compared to artesunate
C[C@H]1[C@H](OCc2cn(-c3ccc(-c4ccc(-n5cc(CO[C@@H]6O[C@@H]7O[C@@]8(C)CC[C@H]9[C@H](C)CC[C@@H]([C@H]6C)[C@@]79OO8)nn5)cc4)cc3)nn2)O[C@@H]2O[C@@]3(C)CC[C@H]4[C@H](C)CC[C@@H]1[C@@]24OO3 [Compound 12]	75%	56%	64%	78%	75%	80%	
C[C@H]1[C@H](OCCc2cn(-c3ccc(-c4ccc(-n5cc(CCO[C@@H]6O[C@@H]7O[C@@]8(C)CC[C@H]9[C@H](C)CC[C@@H]([C@H]6C)[C@@]79OO8)nn5)cc4)cc3)nn2)O[C@@H]2O[C@@]3(C)CC[C@H]4[C@H](C)CC[C@@H]1[C@@]24OO3 [Compound 13]	56%	41%	46%	66%	63%	82%	
C[C@H]1[C@H](OCc2cn(C3O[C@@H]4O[C@@]5(C)CC[C@H]6[C@H](C)CC[C@@H]([C@H]3C)[C@@]46OO5)nn2)O[C@@H]2O[C@]3(C)CC[C@H]4[C@H](C)CC[C@@H]1[C@@]24OO3 (some centres unmarked) [Compound 14]			22%	63%		62%	
C[C@H]1[C@H](OCCc2cn(C3O[C@@H]4O[C@@]5(C)CC[C@H]6[C@H](C)CC[C@@H]([C@H]3C)[C@@]46OO5)nn2)O[C@@H]2O[C@]3(C)CC[C@H]4[C@H](C)CC[C@@H]1[C@@]24OO3 (some centres unmarked) [Compound 15]	66%	29%	48%	70%	78%	79%	
CO[C@@]12[C@H](COC(N)=O)C3=C(C(=O)C(C)=C(N)C3=O)N1C[C@@H]1N[C@@H]12 [Mitomycin-c]							% GROWTH INHIBITION Liver HEP-2 [6]: 58%
C[C@H]1[C@H](OC(=O)CCC(=O)O)O[C@@H]2O[C@@]3(C)CC[C@H]4[C@H](C)CC[C@@H]1[C@@]24OO3 [artesunate, sodium artesunate]							in-vitro inhibition of clinical isolates (CMV [5]; 11.1 μM): 50-80%; cytotoxicity (CMV [5]; CMV replication study): no cytotoxicity; CMV replication in rat CMV model (CMV [7]): inhibit CMV replication
